Where “and” joins values, the source holds several entries; their conditions need not be identical. Equal entries are not always repeated. Entries after “also recorded” stand apart in the source; their conditions may differ.
What was measured:
[1] = test system: PASMCs; test: Hypoxia-induced increase in [Ca2+]i in PASMCs (4% O2); format: cell-based, rat; settings: 10-100 μM
Description: (§1) Intrapulmonary arteries (200-600 μm o.d.) were isolated from male Wistar rats (250-350 g) and cleaned of connective tissue. After the lumen was gently rubbed with a cotton swab to remove the endothelial cells, the arteries were allowed to recover for 30 minutes in cold (4° C.) HBSS containing (in mM): 130 NaCl, 5 KCl, 1.2 MgCl2, 1.5 CaCl2, 10 N-[2-hydroxyethyl]piperazine-N′-[2-ethanesulfonic acid] (HEPES) and 10 glucose, with pH adjusted to 7.2 with 5 M NaOH, followed by 20 minutes in reduced-Ca^2+ (20 μM CaCl2) HBSS at room temperature. […] Following digestion, single smooth muscle cells were dispersed by gentle trituration with a wide-bore transfer pipette in Ca^2+-free HBSS and the cell suspension was placed on 25 mm glass cover slips. PASMCs were transiently cultured in Ham's-F-12 media supplemented with 0.5% fetal bovine serum and 1% penicillin/streptomycin for 24-48 hrs. before study.
(§2) Acute hypoxia increases intracellular [Ca^2+] in pulmonary arterial smooth muscle by enhancing capacitative Ca^2+ entry. […] Ratiometric measurement of fluorescence from the dye was performed on a workstation (Intracellular Imaging Inc, Cincinnati, Ohio) consisting of a Nikon TSE 100 Ellipse inverted microscope with epi-fluorescence attachments. The light beam from a xenon arc lamp was filtered at 340 and 380 nm, and focused onto the PASMCS under examination via a 20× fluorescence objective (Super Fluor 20, Nikon). Light emitted from the cell at 510 nm was returned through the objective and detected by a cooled CCD imaging camera. An electronic shutter (Sutter Instruments) was used to minimize photobleaching of dye. Protocols were executed and data collected on-line with InCyte software (Intracellular Imaging Inc). [Ca^2+]i was estimated from in vitro calibration solutions.

[2] = test system: Beagle dogs; test: Dog study: arterial blood gases, ventilation and acid-base status in normoxia and hypoxia; format: in vivo
From the text: The dogs were kept under highly standardized conditions and received a standardized diet five days before the experiments. […] To permit spontaneous breathing through a low resistance circuit, a face mask was attached, which enclosed the dog's snout in a leak proof fashion. This custom made mask is equipped with a 2.5 cm ID connector to connect it to a ventilator set to CPAP mode (3 4 cmH20) (Servo900C; Siemens-Elema, Erlangen/Germany).
Six dogs were studied in five different protocols in randomized order:
5) Ethoxzolamide (Sigma-Aldrich, Steinheim/Germany) intravenously: Bolus ethoxzolamide (1 mg/kg), followed by a continuous infusion of 1 mg·kg^−1·h^−1.
The hemodynamic measurements (arterial blood pressure, heart rate, central venous pressure, pulmonary artery pressure, pulmonary capillary wedge pressure), minute ventilation, renal function data, time points for blood samples for blood gases, actual bicarbonate, base excess, plasma electrolytes and hormones, measurements of plasma and urinary values were according to former studies.
Values are given as means±SEM (n=6). For intra-group comparisons a general linear model of analysis of variance (GLM-ANOVA) for repeated measures was applied (NCSS97/PASS 2000, Saugus/MA, USA). Post-hoc testing of means was performed with Student's t-test. Level of significance for error of first order was adjusted according to Holm's procedure. Statistical significance was assumed at p<0.05.

[3] = test system: PASMCs; test: Basal intracellular Ca2+ concentration in PASMCs (Fura-2); format: cell-based, rat; settings: for basal [Ca^2+]i, Treatment: 100 μM, after 10 min of perfusion; for effect on resting [Ca^2+]i: 10-100 μM; for basal [Ca^2+]i, Baseline: before perfusion with the compound
Description: as §1, §2

[4] = iv bolus + continuous infusion, hypoxia 2nd h
[5] = iv bolus + continuous infusion, hypoxia 3rd h
[6] = iv bolus + continuous infusion, normoxia 1st h
[7] = po 5 mg/kg 12 and 1 hr before, hypoxia 2nd h
[8] = po 5 mg/kg 12 and 1 hr before, hypoxia 3rd h
[9] = po 5 mg/kg 12 and 1 hr before, normoxia 1st h

Compound | effect on hypoxia-induced increase in [Ca^2+]i [1] | BEa, arterial base excess [2, 4] | HCO3a, arterial actual bicarbonate concentration [2, 4] | PaCO2, arterial carbon dioxide tension [2, 4] | PaO2, arterial oxygen tension [2, 4] | VE, minute ventilation [2, 4] | BEa, arterial base excess [2, 5] | HCO3a, arterial actual bicarbonate concentration [2, 5] | PaCO2, arterial carbon dioxide tension [2, 5] | PaO2, arterial oxygen tension [2, 5] | VE, minute ventilation [2, 5] | BEa, arterial base excess [2, 6] | HCO3a, arterial actual bicarbonate concentration [2, 6] | PaCO2, arterial carbon dioxide tension [2, 6] | PaO2, arterial oxygen tension [2, 6] | VE, minute ventilation [2, 6] | basal [Ca^2+]i, Treatment [3] | effect on resting [Ca^2+]i [3] | basal [Ca^2+]i, Baseline [3] | pHa, arterial pH [2, 4] | further results
CC(=O)Nc1nnc(S(N)(=O)=O)s1 [AZ, acetazolamide] | almost complete blockade; also recorded: significant reduction | -4.0 ± 0.3 mM | 19.0 ± 0.4 mM | 30 ± 1 Torr | 37 ± 1 Torr | 5.8 ± 0.6 L/min | -5.6 ± 0.5 mM | 17.5 ± 0.5 mM | 28 ± 1 Torr | 39 ± 1 Torr | 7.0 ± 0.6 L/min | -3.1 ± 0.5 mM | 20.9 ± 0.6 mM | 34 ± 1 Torr | 106 ± 3 Torr | 4.0 ± 0.3 L/min | 150.0 ± 9.6 nM and 155.0 ± 9.6 nM | no effect | 159.6 ± 10.8 nM |  | BEa, arterial base excess [2, 7]: -5.8 ± 0.4 mM; HCO3a, arterial actual bicarbonate concentration [2, 7]: 17.6 ± 0.6 mM; PaCO2, arterial carbon dioxide tension [2, 7]: 29 ± 1 Torr; PaO2, arterial oxygen tension [2, 7]: 37 ± 1 Torr; VE, minute ventilation [2, 7]: 5.9 ± 0.2 L/min; BEa, arterial base excess [2, 8]: -6.5 ± 0.4 mM; PaCO2, arterial carbon dioxide tension [2, 8]: 27 ± 1 Torr; PaO2, arterial oxygen tension [2, 8]: 38 ± 1 Torr; VE, minute ventilation [2, 8]: 6.1 ± 0.2 L/min; BEa, arterial base excess [2, 9]: -7.2 ± 0.6 mM; HCO3a, arterial actual bicarbonate concentration [2, 9]: 17.1 ± 0.7 mM; PaCO2, arterial carbon dioxide tension [2, 9]: 32 ± 1 Torr; PaO2, arterial oxygen tension [2, 9]: 108 ± 2 Torr; VE, minute ventilation [2, 9]: 4.5 ± 0.3 L/min; pHa, arterial pH [2, 9]: 7.34 ± 0.01
NS(=O)(=O)c1nnc(NS(=O)(=O)c2ccccc2)s1 [BZ, benzolamide] | no effect; also recorded: neither EF (FIG. 5) nor BZ (FIG. 6) had a significant effect | -4.4 ± 0.4 mM | 18.4 ± 0.3 mM | 30 ± 1 Torr | 37 ± 1 Torr | 4.4 ± 0.5 L/min | -4.9 ± 0.4 mM | 17.7 ± 0.4 mM | 29 ± 1 Torr | 38 ± 1 Torr | 5.1 ± 0.6 L/min | -4.4 ± 0.4 mM | 20.1 ± 0.3 mM | 37 ± 1^ Torr | 96 ± 1^ Torr | 3.0 ± 0.2 L/min | 120.7 ± 7.7 nM | neither EZ nor BZ altered | 113.4 ± 7.4 nM | 7.41 ± 0.01 | pHa, arterial pH [2, 5]: 7.42 ± 0.01; pHa, arterial pH [2, 6]: 7.35 ± 0.01
CCOc1ccc2nc(S(N)(=O)=O)sc2c1 [EZ, ethoxzolamide] | no effect | -6.2 ± 1.2 mM | 18.1 ± 1.3 mM | 26 ± 1 Torr | 36 ± 1 Torr | 6.4 ± 0.7 L/min | -6.7 ± 1.1 mM | 17.6 ± 1.3 mM | 24 ± 1 Torr | 38 ± 1 Torr | 6.9 ± 0.9 L/min | -5.3 ± 0.5 mM | 19.6 ± 0.6 mM | 33 ± 1 Torr | 105 ± 1 Torr | 4.0 ± 0.2 L/min | 122.5 ± 6.3 nM | neither EZ nor BZ altered | 125.5 ± 7.1 nM | 7.41 ± 0.01 | effect on hypoxia-induced increase in [Ca^2+]i ([1]; listed as EF): neither EF (FIG. 5) nor BZ (FIG. 6) had a significant effect; pHa, arterial pH [2, 5]: 7.42 ± 0.01; pHa, arterial pH [2, 6]: 7.37 ± 0.01

— US8614236B2 (University of Washington, priority 2006, dated 2013)
